PMC3399817 (PLoS ONE, 2012)

Experiments:
Test in all cases: KINOMEscan
Type in all cases: binding
CAMK1G = biological target: T1, CAMK1G (Homo sapiens, UniProt Q96NX5); settings: 1 uM
T1 construct: purchased Ambit KINOMEscan (DiscoverX)
In short: (§1)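 Test concentration 1 μM for all compounds. Values reflect interference with substrate binding, not catalytic turnover.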

[1] = biological target: T2, ABL1(Q252H)-nonphosphorylated (Homo sapiens, UniProt P00519, Q252H); settings: 1 uM
T2 construct: purchased Ambit KINOMEscan (DiscoverX)
In short: as §1

ADCK4 = biological target: T3, ADCK4 (Homo sapiens, UniProt Q96D53); settings: ADCK4, 1 uM
T3 construct: purchased Ambit KINOMEscan (DiscoverX)
In short: as §1

MUSK = biological target: T4, MUSK (Homo sapiens, UniProt O15146); settings: 1 uM
T4 construct: purchased Ambit KINOMEscan (DiscoverX)
In short: as §1

GSK3A = biological target: T5, GSK3A (Homo sapiens, UniProt P49840); settings: for % binding compared to no inhibitor control: GSK3A, 1 uM
T5 construct: purchased Ambit KINOMEscan (DiscoverX)
T5 sequence (P49840 whole entry): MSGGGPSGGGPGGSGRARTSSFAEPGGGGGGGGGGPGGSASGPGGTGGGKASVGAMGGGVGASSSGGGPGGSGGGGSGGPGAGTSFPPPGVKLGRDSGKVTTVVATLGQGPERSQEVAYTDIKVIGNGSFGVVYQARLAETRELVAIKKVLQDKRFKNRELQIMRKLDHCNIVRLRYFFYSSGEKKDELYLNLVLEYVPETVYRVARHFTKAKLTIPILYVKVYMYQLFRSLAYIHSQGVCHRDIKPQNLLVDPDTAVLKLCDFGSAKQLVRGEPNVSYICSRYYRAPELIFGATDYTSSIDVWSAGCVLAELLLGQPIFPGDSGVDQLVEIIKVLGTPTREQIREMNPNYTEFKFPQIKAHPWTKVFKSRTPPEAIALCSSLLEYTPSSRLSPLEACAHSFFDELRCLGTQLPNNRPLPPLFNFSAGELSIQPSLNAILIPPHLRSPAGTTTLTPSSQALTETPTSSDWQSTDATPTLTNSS
In short: as §1

MAP4K3 = biological target: T6, MAP4K3 (Homo sapiens, UniProt Q8IVH8); settings: MAP4K3, 1 uM
T6 construct: purchased Ambit KINOMEscan (DiscoverX)
In short: as §1

LATS2 = biological target: T7, LATS2 (Homo sapiens, UniProt Q9NRM7); settings: LATS2, 1 uM
T7 construct: purchased Ambit KINOMEscan (DiscoverX)
In short: as §1

PIK3CA(E545A) = biological target: T8, PIK3CA(E545A) (Homo sapiens, UniProt P42336, E545A); settings: 1 uM
T8 construct: purchased Ambit KINOMEscan (DiscoverX)
In short: as §1

EPHB2 = biological target: T9, EPHB2 (Homo sapiens, UniProt P29323); settings: EPHB2, 1 uM
T9 construct: purchased Ambit KINOMEscan (DiscoverX)
In short: as §1

YANK2 = biological target: T10, YANK2 (Homo sapiens, UniProt Q9NY57); settings: YANK2, 1 uM
T10 construct: purchased Ambit KINOMEscan (DiscoverX)
In short: as §1

ERBB3 = biological target: T11, ERBB3 (Homo sapiens, UniProt P21860); settings: ERBB3, 1 uM
T11 construct: purchased Ambit KINOMEscan (DiscoverX)
In short: as §1

GAK = biological target: T12, GAK (Homo sapiens, UniProt O14976); settings: 1 uM
T12 construct: purchased Ambit KINOMEscan (DiscoverX)
T12 sequence (O14976 whole entry): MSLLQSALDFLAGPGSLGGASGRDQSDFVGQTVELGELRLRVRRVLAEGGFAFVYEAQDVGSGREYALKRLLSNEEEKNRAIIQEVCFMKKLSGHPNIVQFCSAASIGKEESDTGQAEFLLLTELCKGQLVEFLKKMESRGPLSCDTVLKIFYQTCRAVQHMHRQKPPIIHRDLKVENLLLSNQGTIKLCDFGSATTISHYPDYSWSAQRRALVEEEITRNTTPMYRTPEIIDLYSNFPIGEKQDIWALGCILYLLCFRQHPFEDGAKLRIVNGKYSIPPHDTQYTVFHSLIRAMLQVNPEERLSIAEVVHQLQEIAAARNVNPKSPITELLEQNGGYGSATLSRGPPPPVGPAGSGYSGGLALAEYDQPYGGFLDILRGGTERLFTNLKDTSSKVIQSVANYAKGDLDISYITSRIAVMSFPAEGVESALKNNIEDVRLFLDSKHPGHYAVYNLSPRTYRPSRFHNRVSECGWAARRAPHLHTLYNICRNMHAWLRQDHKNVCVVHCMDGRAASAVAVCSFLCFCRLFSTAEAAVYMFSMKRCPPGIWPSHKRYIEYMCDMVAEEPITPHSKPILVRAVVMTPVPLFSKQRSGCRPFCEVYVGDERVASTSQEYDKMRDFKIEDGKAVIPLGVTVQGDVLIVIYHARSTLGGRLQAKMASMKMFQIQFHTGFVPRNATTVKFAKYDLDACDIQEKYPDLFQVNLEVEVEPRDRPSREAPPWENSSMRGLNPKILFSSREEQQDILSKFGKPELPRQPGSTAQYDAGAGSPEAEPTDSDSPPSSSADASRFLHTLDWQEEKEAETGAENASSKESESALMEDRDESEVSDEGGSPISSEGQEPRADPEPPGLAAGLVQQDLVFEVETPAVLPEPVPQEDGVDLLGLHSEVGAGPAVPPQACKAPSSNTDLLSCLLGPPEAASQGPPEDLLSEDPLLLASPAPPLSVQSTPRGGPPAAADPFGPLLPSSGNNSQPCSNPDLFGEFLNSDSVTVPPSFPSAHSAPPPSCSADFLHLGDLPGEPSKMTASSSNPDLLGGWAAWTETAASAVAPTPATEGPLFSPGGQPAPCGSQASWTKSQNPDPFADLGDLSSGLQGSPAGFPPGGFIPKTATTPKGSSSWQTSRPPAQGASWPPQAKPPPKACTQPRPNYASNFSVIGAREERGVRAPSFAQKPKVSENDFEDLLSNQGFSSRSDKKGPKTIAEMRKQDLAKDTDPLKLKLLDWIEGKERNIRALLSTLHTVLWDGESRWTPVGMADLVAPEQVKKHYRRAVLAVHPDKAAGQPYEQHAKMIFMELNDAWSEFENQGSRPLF
In short: as §1

EPHA1 = biological target: T13, EPHA1 (Homo sapiens, UniProt P21709); settings: EPHA1, 1 uM
T13 construct: purchased Ambit KINOMEscan (DiscoverX)
In short: as §1

PIK3CB = biological target: T14, PIK3CB (Homo sapiens, UniProt P42338); settings: 1 uM
T14 construct: purchased Ambit KINOMEscan (DiscoverX)
In short: as §1

BMX = biological target: T15, BMX (Homo sapiens, UniProt P51813); settings: 1 uM
T15 construct: purchased Ambit KINOMEscan (DiscoverX)
In short: as §1

FGR = biological target: T16, FGR (Homo sapiens, UniProt P09769); settings: 1 uM
T16 construct: purchased Ambit KINOMEscan (DiscoverX)
In short: as §1

KIT(V559D,V654A) = biological target: T17, KIT(V559D,V654A) (Homo sapiens, UniProt P10721, V559D/V654A); settings: 1 uM
T17 construct: purchased Ambit KINOMEscan (DiscoverX)
In short: as §1

[2] = biological target: T18, RPS6KA5(Kin.Dom.2-C-terminal) (Homo sapiens, UniProt O75582); settings: 1 uM
T18 construct: RPS6KA5(Kin.Dom.2-C-terminal); purchased Ambit KINOMEscan (DiscoverX)
In short: as §1

ACVR1B = biological target: T19, ACVR1B (Homo sapiens, UniProt P36896); settings: 1 uM
T19 construct: purchased Ambit KINOMEscan (DiscoverX)
In short: as §1

[3] = biological target: T20, ABL1(M351T)-phosphorylated (Homo sapiens, UniProt P00519, M351T); settings: 1 uM
T20 construct: purchased Ambit KINOMEscan (DiscoverX)
In short: as §1

PFTAIRE2 = biological target: T21, PFTAIRE2 (Homo sapiens, UniProt Q96Q40); settings: PFTAIRE2, 1 uM
T21 construct: purchased Ambit KINOMEscan (DiscoverX)
In short: as §1

AKT3 = biological target: T22, AKT3 (Homo sapiens, UniProt Q9Y243); settings: AKT3, 1 uM
T22 construct: purchased Ambit KINOMEscan (DiscoverX)
In short: as §1

MARK3 = biological target: T23, MARK3 (Homo sapiens, UniProt P27448); settings: MARK3, 1 uM
T23 construct: purchased Ambit KINOMEscan (DiscoverX)
In short: as §1

PCTK1 = biological target: T24, PCTK1 (Homo sapiens, UniProt Q00536); settings: PCTK1, 1 uM
T24 construct: purchased Ambit KINOMEscan (DiscoverX)
In short: as §1

CSNK1G2 = biological target: T25, CSNK1G2 (Homo sapiens, UniProt P78368); settings: CSNK1G2, 1 uM
T25 construct: purchased Ambit KINOMEscan (DiscoverX)
In short: as §1

OSR1 = biological target: T26, OSR1 (Homo sapiens, UniProt O95747); settings: OSR1, 1 uM
T26 construct: purchased Ambit KINOMEscan (DiscoverX)
In short: as §1

TNK2 = biological target: T27, TNK2 (Homo sapiens, UniProt Q07912); settings: TNK2, 1 uM
T27 construct: purchased Ambit KINOMEscan (DiscoverX)
In short: as §1

STK33 = biological target: T28, STK33 (Homo sapiens, UniProt Q9BYT3); settings: STK33, 1 uM
T28 construct: purchased Ambit KINOMEscan (DiscoverX)
In short: as §1

MLCK = biological target: T29, MLCK (Homo sapiens, UniProt Q32MK0); settings: 1 uM
T29 construct: purchased Ambit KINOMEscan (DiscoverX)
In short: as §1

PIK3C2B = biological target: T30, PIK3C2B (Homo sapiens, UniProt O00750); settings: 1 uM
T30 construct: purchased Ambit KINOMEscan (DiscoverX)
T30 sequence (O00750 whole entry): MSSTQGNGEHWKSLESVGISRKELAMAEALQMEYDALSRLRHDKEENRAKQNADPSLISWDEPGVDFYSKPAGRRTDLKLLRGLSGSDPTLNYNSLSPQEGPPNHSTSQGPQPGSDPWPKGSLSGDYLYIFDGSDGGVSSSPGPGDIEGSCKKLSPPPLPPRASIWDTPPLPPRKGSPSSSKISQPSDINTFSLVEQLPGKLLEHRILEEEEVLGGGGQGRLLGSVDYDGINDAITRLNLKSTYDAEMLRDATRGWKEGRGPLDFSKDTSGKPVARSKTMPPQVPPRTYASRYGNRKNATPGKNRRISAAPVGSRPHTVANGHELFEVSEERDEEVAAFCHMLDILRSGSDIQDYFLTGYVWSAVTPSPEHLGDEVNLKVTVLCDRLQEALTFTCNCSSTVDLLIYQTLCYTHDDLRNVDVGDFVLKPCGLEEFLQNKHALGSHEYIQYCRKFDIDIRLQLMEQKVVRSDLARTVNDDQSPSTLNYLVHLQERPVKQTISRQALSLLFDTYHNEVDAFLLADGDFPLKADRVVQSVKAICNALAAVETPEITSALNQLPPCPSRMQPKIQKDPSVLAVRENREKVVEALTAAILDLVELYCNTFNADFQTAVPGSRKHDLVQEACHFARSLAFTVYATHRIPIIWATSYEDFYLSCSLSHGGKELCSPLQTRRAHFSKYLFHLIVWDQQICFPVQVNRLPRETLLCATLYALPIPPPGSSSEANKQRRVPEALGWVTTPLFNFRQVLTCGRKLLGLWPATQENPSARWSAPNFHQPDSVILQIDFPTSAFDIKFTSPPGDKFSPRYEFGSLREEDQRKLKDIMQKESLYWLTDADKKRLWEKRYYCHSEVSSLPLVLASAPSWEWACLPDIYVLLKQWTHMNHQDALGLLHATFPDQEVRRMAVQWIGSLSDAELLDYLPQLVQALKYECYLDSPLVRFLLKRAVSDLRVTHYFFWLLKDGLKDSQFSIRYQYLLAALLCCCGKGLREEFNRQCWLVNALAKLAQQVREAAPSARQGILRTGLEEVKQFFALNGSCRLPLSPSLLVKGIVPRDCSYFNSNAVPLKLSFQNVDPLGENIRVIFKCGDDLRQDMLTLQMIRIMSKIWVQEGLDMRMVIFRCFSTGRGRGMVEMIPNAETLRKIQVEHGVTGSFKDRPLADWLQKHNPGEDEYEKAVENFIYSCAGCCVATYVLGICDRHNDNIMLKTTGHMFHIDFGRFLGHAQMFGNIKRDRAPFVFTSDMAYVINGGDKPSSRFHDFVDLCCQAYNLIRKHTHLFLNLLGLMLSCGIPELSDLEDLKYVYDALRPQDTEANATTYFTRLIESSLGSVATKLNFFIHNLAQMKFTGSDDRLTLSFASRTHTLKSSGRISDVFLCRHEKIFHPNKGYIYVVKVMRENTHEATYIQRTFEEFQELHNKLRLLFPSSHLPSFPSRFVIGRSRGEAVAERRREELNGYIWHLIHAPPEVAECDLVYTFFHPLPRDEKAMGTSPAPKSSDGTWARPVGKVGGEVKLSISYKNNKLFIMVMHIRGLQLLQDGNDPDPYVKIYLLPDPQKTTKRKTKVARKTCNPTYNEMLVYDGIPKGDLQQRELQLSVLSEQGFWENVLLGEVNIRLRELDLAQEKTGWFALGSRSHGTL
In short: as §1

CSK = biological target: T31, CSK (Homo sapiens, UniProt P41240); settings: 1 uM
T31 construct: purchased Ambit KINOMEscan (DiscoverX)
In short: as §1

HPK1 = biological target: T32, HPK1 (Homo sapiens, UniProt Q92918); settings: HPK1, 1 uM
T32 construct: purchased Ambit KINOMEscan (DiscoverX)
In short: as §1

FGFR3(G697C) = biological target: T33, FGFR3(G697C) (Homo sapiens, UniProt P22607, G697C); settings: 1 uM
T33 construct: purchased Ambit KINOMEscan (DiscoverX)
In short: as §1

CAMKK1 = biological target: T34, CAMKK1 (Homo sapiens, UniProt Q8N5S9); settings: CAMKK1, 1 uM
T34 construct: purchased Ambit KINOMEscan (DiscoverX)
In short: as §1

EGFR(G719C) = biological target: T35, EGFR(G719C) (Homo sapiens, UniProt P00533, G719C); settings: 1 uM
T35 construct: purchased Ambit KINOMEscan (DiscoverX)
In short: as §1

MYO3A = biological target: T36, MYO3A (Homo sapiens, UniProt Q8NEV4); settings: 1 uM
T36 construct: purchased Ambit KINOMEscan (DiscoverX)
T36 sequence (Q8NEV4 whole entry): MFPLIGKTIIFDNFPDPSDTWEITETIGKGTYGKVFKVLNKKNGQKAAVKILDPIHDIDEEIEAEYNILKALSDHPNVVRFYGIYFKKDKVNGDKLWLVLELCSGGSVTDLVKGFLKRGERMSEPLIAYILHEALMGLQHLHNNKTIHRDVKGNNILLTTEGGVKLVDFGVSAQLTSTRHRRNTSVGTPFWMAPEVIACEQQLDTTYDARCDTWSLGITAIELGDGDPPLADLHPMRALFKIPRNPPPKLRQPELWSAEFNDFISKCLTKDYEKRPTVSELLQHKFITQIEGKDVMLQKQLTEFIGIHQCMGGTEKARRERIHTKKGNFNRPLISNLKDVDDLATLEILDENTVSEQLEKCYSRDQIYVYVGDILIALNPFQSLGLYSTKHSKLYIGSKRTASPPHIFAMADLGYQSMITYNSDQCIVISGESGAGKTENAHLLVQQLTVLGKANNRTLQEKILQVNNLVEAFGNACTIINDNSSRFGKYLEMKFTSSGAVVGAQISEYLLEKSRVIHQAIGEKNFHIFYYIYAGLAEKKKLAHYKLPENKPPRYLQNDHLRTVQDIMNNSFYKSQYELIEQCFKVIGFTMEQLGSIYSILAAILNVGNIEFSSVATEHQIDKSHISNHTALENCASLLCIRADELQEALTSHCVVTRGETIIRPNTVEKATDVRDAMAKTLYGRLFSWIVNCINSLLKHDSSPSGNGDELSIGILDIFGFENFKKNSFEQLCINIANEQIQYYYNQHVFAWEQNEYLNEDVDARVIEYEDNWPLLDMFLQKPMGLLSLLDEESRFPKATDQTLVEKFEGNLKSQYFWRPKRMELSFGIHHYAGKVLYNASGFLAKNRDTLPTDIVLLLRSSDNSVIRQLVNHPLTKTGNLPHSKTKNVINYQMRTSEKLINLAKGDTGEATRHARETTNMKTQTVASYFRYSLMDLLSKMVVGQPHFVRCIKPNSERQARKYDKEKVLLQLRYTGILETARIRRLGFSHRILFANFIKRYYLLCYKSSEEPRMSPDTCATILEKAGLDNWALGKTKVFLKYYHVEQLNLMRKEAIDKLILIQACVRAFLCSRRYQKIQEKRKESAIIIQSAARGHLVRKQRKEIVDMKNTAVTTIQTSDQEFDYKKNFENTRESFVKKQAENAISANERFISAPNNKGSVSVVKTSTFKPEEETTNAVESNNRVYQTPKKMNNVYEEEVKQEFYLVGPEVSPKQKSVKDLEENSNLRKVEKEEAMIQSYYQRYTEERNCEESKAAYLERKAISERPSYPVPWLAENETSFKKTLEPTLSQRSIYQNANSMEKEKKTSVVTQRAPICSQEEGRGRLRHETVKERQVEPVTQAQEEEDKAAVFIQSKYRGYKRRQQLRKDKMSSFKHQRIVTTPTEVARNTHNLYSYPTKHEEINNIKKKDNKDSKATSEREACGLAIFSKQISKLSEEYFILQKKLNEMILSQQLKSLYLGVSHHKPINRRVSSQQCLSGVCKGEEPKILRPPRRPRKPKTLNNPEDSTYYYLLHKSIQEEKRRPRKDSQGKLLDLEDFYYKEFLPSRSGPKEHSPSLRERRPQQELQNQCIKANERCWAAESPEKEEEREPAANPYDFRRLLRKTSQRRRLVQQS
In short: as §1

GRK1 = biological target: T37, GRK1 (Homo sapiens, UniProt Q15835); settings: GRK1, 1 uM
T37 construct: purchased Ambit KINOMEscan (DiscoverX)
In short: as §1

LYN = biological target: T38, LYN (Homo sapiens, UniProt P07948); settings: 1 uM
T38 construct: purchased Ambit KINOMEscan (DiscoverX)
In short: as §1

MRCKB = biological target: T39, MRCKB (Homo sapiens, UniProt Q9Y5S2); settings: 1 uM
T39 construct: purchased Ambit KINOMEscan (DiscoverX)
In short: as §1

| SMILES | % binding compared to no inhibitor control (CAMK1G) | % binding compared to no inhibitor control [1] | % binding compared to no inhibitor control (ADCK4) | % binding compared to no inhibitor control (MUSK) | % binding compared to no inhibitor control (GSK3A) | % binding compared to no inhibitor control (MAP4K3) | % binding compared to no inhibitor control (LATS2) | % binding compared to no inhibitor control (PIK3CA(E545A)) | % binding compared to no inhibitor control (EPHB2) | % binding compared to no inhibitor control (YANK2) | % binding compared to no inhibitor control (ERBB3) | % binding compared to no inhibitor control (GAK) | % binding compared to no inhibitor control (EPHA1) | % binding compared to no inhibitor control (PIK3CB) | % binding compared to no inhibitor control (BMX) | % binding compared to no inhibitor control (FGR) | % binding compared to no inhibitor control (KIT(V559D,V654A)) | % binding compared to no inhibitor control [2] | % binding compared to no inhibitor control (ACVR1B) | % binding compared to no inhibitor control [3] | other results |
| --- | --- | --- | --- | --- | --- | --- | --- | --- | --- | --- | --- | --- | --- | --- | --- | --- | --- | --- | --- | --- | --- |
| COc1ccc(-c2cc3nccn3c(Nc3ncccc3C(N)=O)n2)cc1OC.Cl.Cl [BAY61-3606, 2-[7-(3,4-dimethoxyphenyl)-imidazo [1,2-c]pyrimidin-5-ylamino] nicotinamide dihydrochloride, reference compound] | 82% | 85% | 9.9% | 76% | 17% | 97% | 45% | 90% | 100% | 86% | 100% | 30% | 81% | 92% | 95% | 80% | 71% | 89% | 100% | 81% | % inhibition ATP binding (GSK3A; GSK3α, KINOMEscan, 1 μM): 83%; % binding compared to no inhibitor control (PFTAIRE2): 85%; % binding compared to no inhibitor control (AKT3): 90%; % binding compared to no inhibitor control (MARK3): 100%; % binding compared to no inhibitor control (PCTK1): 86%; % binding compared to no inhibitor control (CSNK1G2): 100%; % binding compared to no inhibitor control (OSR1): 100%; % binding compared to no inhibitor control (TNK2): 96%; % binding compared to no inhibitor control (STK33): 87%; % binding compared to no inhibitor control (MLCK): 100%; % binding compared to no inhibitor control (PIK3C2B): 60%; % binding compared to no inhibitor control (CSK): 68%; % binding compared to no inhibitor control (HPK1): 43%; % binding compared to no inhibitor control (FGFR3(G697C)): 83%; % binding compared to no inhibitor control (CAMKK1): 48%; % binding compared to no inhibitor control (EGFR(G719C)): 68%; % binding compared to no inhibitor control (MYO3A): 80%; % binding compared to no inhibitor control (GRK1): 65%; % binding compared to no inhibitor control (LYN): 100%; % binding compared to no inhibitor control (MRCKB): 99% |
| COc1ccccc1Nc1nc(-c2ccc(OC)c(OC)c2)cc2nccn12 [BAY derivative 6] | 98% | 58% | 69% | 100% | 100% | 100% | 88% | 100% | 99% | 100% | 87% | 43% | 81% | 100% | 95% | 54% | 100% | 97% | 100% | 92% | % binding compared to no inhibitor control (PFTAIRE2): 100%; % binding compared to no inhibitor control (AKT3): 100%; % binding compared to no inhibitor control (MARK3): 100%; % binding compared to no inhibitor control (PCTK1): 100%; % binding compared to no inhibitor control (CSNK1G2): 100%; % binding compared to no inhibitor control (OSR1): 100%; % binding compared to no inhibitor control (TNK2): 53%; % binding compared to no inhibitor control (STK33): 100%; % binding compared to no inhibitor control (MLCK): 100%; % binding compared to no inhibitor control (PIK3C2B): 100%; % binding compared to no inhibitor control (CSK): 99%; % binding compared to no inhibitor control (HPK1): 100%; % binding compared to no inhibitor control (FGFR3(G697C)): 70%; % binding compared to no inhibitor control (CAMKK1): 100%; % binding compared to no inhibitor control (EGFR(G719C)): 100%; % binding compared to no inhibitor control (MYO3A): 100%; % binding compared to no inhibitor control (GRK1): 100%; % binding compared to no inhibitor control (LYN): 96%; % binding compared to no inhibitor control (MRCKB): 100% |
